Tests used:
[1] = molecular target: T1, human RORγt (Homo sapiens, UniProt P51449); test: IL-17 secretion from EL4 murine lymphoma overexpressing human RORγt; assay type: cell-based; parameters: V5-His (named only through the vector pcDNA3.1D/V5-His-TOPO); expressed in transfected cells; settings: IL-17 secretion inhibition in human RORγt-transfected EL4 Tcells, PMA/ionomycin stimulation
T1 sequence (P51449 1-497 isoform P51449-2): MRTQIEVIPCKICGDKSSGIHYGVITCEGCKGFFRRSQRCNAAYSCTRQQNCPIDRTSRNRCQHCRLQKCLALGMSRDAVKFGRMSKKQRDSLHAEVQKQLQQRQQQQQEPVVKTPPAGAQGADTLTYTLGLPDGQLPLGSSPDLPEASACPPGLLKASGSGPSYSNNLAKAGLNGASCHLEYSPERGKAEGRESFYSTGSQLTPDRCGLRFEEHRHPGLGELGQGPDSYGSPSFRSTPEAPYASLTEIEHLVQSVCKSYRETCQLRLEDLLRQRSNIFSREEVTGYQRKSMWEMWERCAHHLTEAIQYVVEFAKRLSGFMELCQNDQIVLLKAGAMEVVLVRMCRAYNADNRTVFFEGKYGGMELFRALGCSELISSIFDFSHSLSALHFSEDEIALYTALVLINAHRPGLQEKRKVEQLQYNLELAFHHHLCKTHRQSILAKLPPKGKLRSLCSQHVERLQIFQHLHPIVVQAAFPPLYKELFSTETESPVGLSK
Method: Murine EL-4 lymphoma cell line overexpressing human RORγt was used in this functional assay to assess compound ability to inhibit IL-17 cytokine secretion.
EL-4 cells are maintained in a standard culture medium RPMI supplemented with 10% fetal calf serum, 1% sodium pyruvate, 1% essential amino acids and 1% antibiotics at 37° C. in a humidified atmosphere of 5% CO2 and 95% air. Culture medium was changed every 2 days. EL4 cells were transfected with a plasmid encoding hRORγt (sequence identical to published sequence NM 001001523). […] Briefly, 1 μg of DNA/1 million cells was served to transfect EL-4 cells. Cell/DNA suspension was transferred into certified cuvette and the electroporation of RORγt plasmid was carried out using appropriate Nucleofector® program.
Cells were seeded in 96 well plates at a density of 150000 cells/well then treated with compounds of this invention at indicated concentrations and incubated for 24 hours at 37° C. in a humidified atmosphere of 5% CO2 and 95% air. EL-4 cells were pretreated with test compounds (RORγ modulators) and stimulated with PMA (10 ng/mL) and ionomycin (1 μM final concentration) in the presence of test compound concentrations for additional 24 h at 37° C. in a humidified atmosphere of 5% CO2 and 95% air. Subsequently, supernatants were collected (after centrifugation at 300 g for 10 minutes) to determine the concentrations of IL-17 by HTRF (CisBio, France) or ELISA (R&D Systems Europe) according to the manufacturer's protocols.

[2] = molecular target: T1, human RORγt; test: RORE Luciferase/RORγt transactivation assay (IL-17 promoter luciferase reporter in COS-7 cells); assay type: cell-based; parameters: V5-His (named only through the vector pcDNA3.1D/V5-His-TOPO); expressed in transfected cells; host or cells: COS-7 (monkey kidney); settings: RORγt activity inhibition, luciferase activity in transfected COS-7 cells, 20 h
Method in brief: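 COS-7 cells co-transfected with human RORγt and luciferase reporter driven by 4.3 kb IL-17 promoter with CNS enhancer, seeded in serum-free, phenol red-free DMEM. Compounds added at 0.3% DMSO final; luciferase read by Steady-Glo luminescence. IC50 (μM) and Emax (%) reported.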

[3] = molecular target: T2, RORγt ligand-binding domain (RORγt-LBD) (Homo sapiens, UniProt P51449); test: Time-resolved FRET (TR-FRET) RORγt coactivator assay (RIP140 peptide displacement); assay type: biochemical; settings: ligand-dependent coactivator-RORγt binding
T2 construct: 20 nM recombinantly expressed RORγ-LBD fused to GST
T2 sequence (P51449 269-508 limits assumed): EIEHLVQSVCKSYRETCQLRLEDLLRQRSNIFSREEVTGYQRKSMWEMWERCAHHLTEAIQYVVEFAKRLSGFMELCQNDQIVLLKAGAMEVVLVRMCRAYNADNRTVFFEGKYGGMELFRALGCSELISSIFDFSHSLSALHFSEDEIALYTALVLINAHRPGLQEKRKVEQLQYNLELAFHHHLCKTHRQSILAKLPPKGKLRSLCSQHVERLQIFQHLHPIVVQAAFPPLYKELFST
Excerpt: Time-resolved FRET (TR-FRET) RORγt coactivator assay was used to identify RORγ modulator compounds with ligand-dependent coactivator displacement. The assay uses a d2-labeled anti-GST antibody, synthetic N-terminally biotinylated peptide which is derived from nuclear receptor coactivator protein RIP140, and a RORγt ligand-binding domain (RORγt-LBD) that is tagged with glutathione-S-transferase (GST). The influence of compounds on the RORγ-peptide interaction relies on the binding dependent energy transfer from a donor to an acceptor fluorophor attached to the binding partner of interest. […] For reduction of background from compound fluorescence, TR-FRET method makes use of generic fluorophore labels and time resolved detection.
The assays were done in a final volume of 20 μl in a 384 well plate in a CHAPS buffer (2 mM CHAPS; 1 mM DTT, 2 mM EDTA; 0.1% BSA), containing 20 nM recombinantly expressed RORγ-LBD fused to GST, 30 nM N-terminally biotinylated peptide, 1 nM streptavidin-terbium conjugate and 20 nM d2 labeled-anti-GST. Test compounds were diluted using 10 mM stock solution. The range of the final compound concentrations used in this test was from 0.3 nM to 30 μM (logarithmic scale). DMSO content of the samples was kept at 1%. The assay was equilibrated for 2 hours in the dark at room temperature in 384 well plates (Falcon). The signal was detected by an Ultra384 reader (TECAN). […] Compounds that promote coactivator displacement induce a concentration-dependent decrease in time-resolved fluorescent signal. Data were collected and analyzed using GraphPad Prism software (GraphPad Software V5.02, San Diego Calif. USA). IC50 in μM and E max in % were reported for each compound.

In the case of `O=C(Cc1ccc(N2CCS(=O)(=O)CC2)cc1)NC(c1ccccc1)c1ccccc1N1CCCCC1` (centres unmarked) [Cpd. 1, 2-[4-(1,1-dioxo-1-thiomorpholin-4-yl)phenyl]-N-{phenyl[2-(piperidin-1-yl)phenyl]methyl}acetamide], the IC50 [1] is reported as 0.1 to 1 µM, the IC50 [2] is reported as 0.1 to 1 µM and the IC50 [3] is reported as < 1 µM.

`Cc1ccc(C(NC(=O)Cc2cc(N3CCS(=O)(=O)CC3)ccc2C)c2ccc(C)o2)c(N2CCCCC2)c1` (centres unmarked) [Cpd. 5, 2-[5-(1,1-dioxo-1-thiomorpholin-4-yl)-2-methylphenyl]-N-{[4-methyl-2-(piperidin-1-yl)phenyl](5-methylfuran-2-yl)methyl}acetamide] showed an IC50 [1] of 0.1 to 1 µM, an IC50 [2] of 0.1 to 1 µM and an IC50 [3] of 0.1 to 1 µM.

In the case of `Cc1ccc(C(NC(=O)Cc2ccc(N3CCS(=O)(=O)CC3)cc2)c2ccc(C)o2)c(N2CCCCC2)c1` (centres unmarked) [Cpd. 6, 2-[4-(1,1-dioxo-1-thiomorpholin-4-yl)phenyl]-N-{[4-methyl-2-(piperidin-1-yl)phenyl](5-methylfuran-2-yl)methyl}acetamide], the IC50 [1] is reported as < 1 µM, the IC50 [2] is reported as < 0.1 µM and the IC50 [3] is reported as < 1 µM.

With `Cc1ccc(C(NC(=O)Cc2ccc(N3CCS(=O)(=O)CC3)cc2)c2ccccc2)c(Br)c1` (centres unmarked) [Cpd. 9, N-[(2-bromo-4-methylphenyl)(phenyl)methyl]-2-[4-(1,1-dioxo-1-thiomorpholin-4-yl)phenyl]acetamide] the IC50 [1] was 0.1 to 1 µM, the IC50 [2] was 0.1 to 1 µM and the IC50 [3] was < 1 µM.

With `Cc1ccc(C(NC(=O)Cc2ccc(N3CCS(=O)(=O)CC3)c(C)c2)c2ccc(C)o2)c(C(F)(F)F)c1` (centres unmarked) [Cpd. 10, 2-[4-(1,1-dioxo-1-thiomorpholin-4-yl)-3-methylphenyl]-N-{[4-methyl-2-(trifluoromethyl)phenyl](5-methylfuran-2-yl)methyl}acetamide] the IC50 [1] was 0.1 to 1 µM, the IC50 [2] was 0.1 to 1 µM and the IC50 [3] was 0.1 to 1 µM.

`Cc1ccc(C(NC(=O)Cc2ccc(N3CCS(=O)(=O)CC3)c(C)c2)c2ccc(C)o2)c(Br)c1` (centres unmarked) [Cpd. 11, N-[(2-bromo-4-methylphenyl)(5-methylfuran-2-yl)methyl]-2-[4-(1,1-dioxo-1-thiomorpholin-4-yl)-3-methylphenyl]acetamide] was tested, and the IC50 [1] was 0.1 to 1 µM, the IC50 [2] was 0.1 to 1 µM and the IC50 [3] was < 1 µM.

In the case of `Cc1ccc(C(NC(=O)Cc2ccc(N3CCS(=O)(=O)CC3)c(C)c2)c2ccc(C)o2)c(N2CCCCC2)c1` (centres unmarked) [Cpd. 12, 2-[4-(1,1-dioxo-1-thiomorpholin-4-yl)-3-methylphenyl]-N-{[4-methyl-2-(piperidin-1-yl)phenyl](5-methylfuran-2-yl)methyl}acetamide], the IC50 [1] is reported as < 1 µM, the IC50 [2] is reported as < 0.1 µM and the IC50 [3] is reported as < 1 µM.

In the case of `COc1ccc(C(NC(=O)Cc2ccc(N3CCS(=O)(=O)CC3)c(C)c2)c2ccc(C)o2)c(N2CCC(C)CC2)c1` (centres unmarked) [Cpd. 13, 2-[4-(1,1-dioxo-1-thiomorpholin-4-yl)-3-methylphenyl]-N-{[4-methoxy-2-(4-methylpiperidin-1-yl)phenyl](5-methylfuran-2-yl)methyl}acetamide], the IC50 [1] is reported as 0.1 to 1 µM, the IC50 [2] is reported as 0.1 to 1 µM and the IC50 [3] is reported as 0.1 to 1 µM.

In the case of `COc1ccc(C(NC(=O)Cc2ccc(N3CCS(=O)(=O)CC3)c(C)c2)c2ccc(C)o2)c(N(C)C)c1` (centres unmarked) [Cpd. 15, N-{[2-(dimethylamino)-4-methoxyphenyl](5-methylfuran-2-yl)methyl}-2-[4-(1,1-dioxo-1-thiomorpholin-4-yl)-3-methylphenyl]acetamide], the IC50 [1] is reported as < 1 µM, the IC50 [2] is reported as 0.1 to 1 µM and the IC50 [3] is reported as < 1 µM.

In the case of `COc1ccc(C(NC(=O)Cc2ccc(N3CCS(=O)(=O)CC3)c(C)c2)c2ccc(C)o2)c(N2CC3CC3C2)c1` (centres unmarked) [Cpd. 16, N-[(2-{3-azabicyclo[3.1.0]hexan-3-yl}-4-methoxyphenyl)(5-methylfuran-2-yl)methyl]-2-[4-(1,1-dioxo-1-thiomorpholin-4-yl)-3-methylphenyl]acetamide], the IC50 [1] is reported as < 1 µM, the IC50 [2] is reported as 0.1 to 1 µM and the IC50 [3] is reported as < 1 µM.

With `Cc1ccc(C(NC(=O)Cc2ccc(N3CCS(=O)(=O)CC3)cc2C)c2ccc(C)o2)c(N2CCCCC2)c1` (centres unmarked) [Cpd. 18, 2-[4-(1,1-dioxo-1-thiomorpholin-4-yl)-2-methylphenyl]-N-{[4-methyl-2-(piperidin-1-yl)phenyl](5-methylfuran-2-yl)methyl}acetamide] the IC50 [1] was < 1 µM, the IC50 [2] was < 0.1 µM and the IC50 [3] was < 1 µM.

`Cc1ccc(C(NC(=O)Cc2ccc(N3CCS(=O)(=O)CC3)cc2C)c2ccc(C)o2)c(C)c1` (centres unmarked) [Cpd. 19, N-[(2,4-dimethylphenyl)(5-methylfuran-2-yl)methyl]-2-[4-(1,1-dioxo-1-thiomorpholin-4-yl)-2-methylphenyl]acetamide] was tested, and the IC50 [1] was < 1 µM, the IC50 [2] was < 0.1 µM and the IC50 [3] was < 1 µM.

In the case of `COc1ccc(C(NC(=O)C2(c3cnc(N4CCS(=O)(=O)CC4)nc3)CC2)c2ccc(C)o2)c(C)c1` (centres unmarked) [Cpd. 57, 1-[2-(1,1-dioxo-1-thiomorpholin-4-yl)pyrimidin-5-yl]-N-[(4-methoxy-2-methylphenyl)(5-methylfuran-2-yl)methyl]cyclopropane-1-carboxamide], the IC50 [1] is reported as 1 to 10 µM and the IC50 [2] is reported as 0.1 to 1 µM.

`Cc1ccc(C(NC(=O)C2(c3cccc(N4CCS(=O)(=O)CC4)c3)CC2)c2ccc(C)o2)c(C)c1` (centres unmarked) [Cpd. 68, N-[(2,4-dimethylphenyl)(5-methylfuran-2-yl)methyl]-1-[3-(1,1-dioxo-1-thiomorpholin-4-yl)phenyl]cyclopropane-1-carboxamide] was tested, and the IC50 [2] was 0.1 to 1 µM and the IC50 [3] was < 1 µM.

`Cc1ccc(C(NC(=O)C2(c3cc(N4CCS(=O)(=O)CC4)ccc3C)CC2)c2ccc(C)o2)c(C)c1` (centres unmarked) [Cpd. 70, N-[(2,4-dimethylphenyl)(5-methylfuran-2-yl)methyl]-1-[5-(1,1-dioxo-1-thiomorpholin-4-yl)-2-methylphenyl]cyclopropane-1-carboxamide] showed an IC50 [1] of 1 to 10 µM and an IC50 [3] of 0.1 to 1 µM.

For `Cc1ccc(C(NC(=O)C2(c3ncc(N4CCS(=O)(=O)CC4)cc3C)CC2)c2ccc(C)o2)c(C)c1` (centres unmarked) [Cpd. 72, N-[(2,4-dimethylphenyl)(5-methylfuran-2-yl)methyl]-1-[5-(1,1-dioxo-1-thiomorpholin-4-yl)-3-methylpyridin-2-yl]cyclopropane-1-carboxamide], the IC50 [1] was < 1 µM and the IC50 [2] was < 0.1 µM.

Source: patent US11077115B2, “Rorgamma modulators and uses thereof” (Genfit, priority 2017, dated 2021)
